Results: US4024277A, “Phosphoro-aminosulfenyl derivatives of benzofuran carbamates” (priority 1975, dated 1977)

What was measured:
large milkweed bug [1] = assay: Initial insecticidal activity, milkweed bug; type: in vivo, Oncopeltus fasciatus (Dallas); conditions: Oncopeltus fasciatus, 48-hour exposure, read-out: % Kill, Milkweed Bug
From the text: (§1) a. Initial Insecticidal Activity
(§2) In this test, a candidate insecticide, in solution, is applied to either infested or uninfested plants or containers by spraying or dipping. (The preferred test procedure varies with insect species. The dipping method is better than the spraying method, and vice versa, for certain species of insects. Also some species are better adapted to the test by infesting after the chemical treatment rather than before.) Once the tests have been established, a 48-hour exposure period is observed before reading the tests. Insect species included in these tests are Mexican bean beetle (Epilachna varivestis Mulsant), pea aphid [Acyrthosiphon pisum (Harris)], southern armyworm [Spodoptera eridania (Cramer)], twospotted spider mite (Tetranychus urticae Koch), large milkweed bug [Oncopeltus fasciatus (Dallas)], plum curculio [Conotrachelus nenuphar (Herbst)], confused flour beetle (Tribolium confusum Jacquelin duVal) and granary weevil [Sitophilus granarius (Linnaeus)]. Test results are set forth in Table I. A control sample, comprising the solution without the candidate insecticide, is also included.

plum curculio [2] = assay: Initial insecticidal activity, plum curculio; type: in vivo, Conotrachelus nenuphar (Herbst); conditions: Conotrachelus nenuphar, 48-hour exposure, read-out: % Kill, Plum Curculio
From the text: as §1, §2

confused flour beetle [3] = assay: Initial insecticidal activity, confused flour beetle; type: in vivo, Tribolium confusum Jacquelin duVal; conditions: Tribolium confusum, 48-hour exposure, read-out: % Kill, Confused Flour Beetle
From the text: as §1, §2

Mexican bean beetle [4] = assay: Initial insecticidal activity, Mexican bean beetle; type: in vivo, Epilachna varivestis Mulsant; conditions: Epilachna varivestis, 48-hour exposure, read-out: % Kill, Mexican Bean Beetle
From the text: as §1, §2

pea aphid [5] = assay: Initial insecticidal activity, pea aphid; type: in vivo, Acyrthosiphon pisum (Harris); conditions: Acyrthosiphon pisum, 48-hour exposure, read-out: % Kill, Pea Aphid
From the text: as §1, §2

southern armyworm [6] = assay: Initial insecticidal activity, southern armyworm; type: in vivo, Spodoptera eridania (Cramer); conditions: Spodoptera eridania, 48-hour exposure, read-out: % Kill, Southern Armyworm
From the text: as §1, §2

twospotted spider mite [7] = assay: Initial insecticidal activity, twospotted spider mite; type: in vivo, Tetranychus urticae Koch; conditions: Tetranychus urticae, 48-hour exposure, read-out: % Kill, Twospotted Spider Mite
From the text: as §1, §2

large milkweed bug [8] = assay: Seven-day residual insecticidal activity, milkweed bug; type: in vivo, Oncopeltus fasciatus (Dallas); conditions: Oncopeltus fasciatus, 48-hour exposure, read-out: % Kill, Milkweed Bug
From the text: (§3) b. Seven-Day Residual Insecticidal Activity
(§4) In this test, a candidate insecticide, in solution, is applied to uninfested plants or containers by dipping or spraying. A seven-day holding period is necessary before infestation. A 48-hour exposure period is observed before evaluation of the tests. The insect species used in this type of test are the same as those listed under initial activity.

plum curculio [9] = assay: Seven-day residual insecticidal activity, plum curculio; type: in vivo, Conotrachelus nenuphar (Herbst); conditions: Conotrachelus nenuphar, 48-hour exposure, read-out: % Kill, Plum Curculio
From the text: as §3, §4

confused flour beetle [10] = assay: Seven-day residual insecticidal activity, confused flour beetle; type: in vivo, Tribolium confusum Jacquelin duVal; conditions: Tribolium confusum, 48-hour exposure, read-out: % Kill, Confused Flour Beetle
From the text: as §3, §4

Mexican bean beetle [11] = assay: Seven-day residual insecticidal activity, Mexican bean beetle; type: in vivo, Epilachna varivestis Mulsant; conditions: Epilachna varivestis, 48-hour exposure, read-out: % Kill, Mexican Bean Beetle
From the text: as §3, §4

pea aphid [12] = assay: Seven-day residual insecticidal activity, pea aphid; type: in vivo, Acyrthosiphon pisum (Harris); conditions: Acyrthosiphon pisum, 48-hour exposure, read-out: % Kill, Pea Aphid
From the text: as §3, §4

southern armyworm [13] = assay: Seven-day residual insecticidal activity, southern armyworm; type: in vivo, Spodoptera eridania (Cramer); conditions: Spodoptera eridania, 48-hour exposure, read-out: % Kill, Southern Armyworm
From the text: as §3, §4

twospotted spider mite [14] = assay: Seven-day residual insecticidal activity, twospotted spider mite; type: in vivo, Tetranychus urticae Koch; conditions: Tetranychus urticae, 48-hour exposure, read-out: % Kill, Twospotted Spider Mite
From the text: as §3, §4

Mexican bean beetle [15] = assay: Systemic insecticidal activity (soil/water), Mexican bean beetle; type: in vivo, Epilachna varivestis Mulsant; conditions: Epilachna varivestis, 48-hour exposure, read-out: % Kill, Mexican Bean Beetle
Procedure: (§5) c. Systemic Insecticidal Acitivity (Soil/Water)
(§6) In this test, a candidate insecticide, in solution, is added to the soil of either uninfested pinto bean seedlings (Phaseolus vulgaris) or uninfested broad bean seedlings (Vicia faba var. Windsor). The plant species used depend on the insect species in the test. Usually, a 72-hour translocation period before infestation is required, followed by a 48-hour exposure period, before evaluation of the tests. The insect species used in the systemic tests are Mexican bean beetle, southern armyworm, pea aphid, and twospotted spider mite.

pea aphid [16] = assay: Systemic insecticidal activity (soil/water), pea aphid; type: in vivo, Acyrthosiphon pisum (Harris); conditions: Acyrthosiphon pisum, 48-hour exposure, read-out: % Kill, Pea Aphid
Procedure: as §5, §6

southern armyworm [17] = assay: Systemic insecticidal activity (soil/water), southern armyworm; type: in vivo, Spodoptera eridania (Cramer); conditions: Spodoptera eridania, 48-hour exposure, read-out: % Kill, Southern Armyworm
Procedure: as §5, §6

twospotted spider mite [18] = assay: Systemic insecticidal activity (soil/water), twospotted spider mite; type: in vivo, Tetranychus urticae Koch; conditions: Tetranychus urticae, 48-hour exposure, read-out: % Kill, Twospotted Spider Mite
Procedure: as §5, §6

twospotted spider mite [19] = assay: Ovicidal activity against the twospotted spider mite; type: in vivo, Tetranychus urticae Koch; conditions: Tetranychus urticae, eggs, 7 to 10 days, read-out: % Kill (ovicidal)
Procedure: d. Ovicidal Activity Against the Twospotted Spider Mite
In this test, Pinto bean seedlings are infested with female twospotted spider mites; about 3-4 hours are allowed for egg deposition. Plants are then dipped in TEPP (tetraethylpyrophosphate-commercial emulsifiable concentrate (EC)) solution containing 936 ppm of active ingredient. TEPP kills motile forms on the leaf and promptly degrades without effecting the egg stage. Two to three hours after TEPP treatment the plants are again dipped -- this time into a candidate insecticide solution. The test plants are maintained for 7 to 10 days. Termination of exposure is determined by the time required to attain complete hatch in the untreated check.

[20] = Mammalian toxicity, 14-day LD50 in rats; conditions: rat, in vivo, Wistar derived albino rats, method of Miller and Tainter
From the text: The compounds of this invention are characterized by advantageous mammalian toxicity values when compared with values for related compounds. This is shown by comparative values obtained with Wistar derived albino rats in 14-day tests. The animals were fed, housed and watered in accordance with standard laboratory procedures. The 14-day LD50 determination was estimated in accord with the method of Miller and Tainter (Experimental Biology and Medicine, 57, pp. 261-264, 1944).

[21] = system: beetles, true bugs, aphids and acarids; conditions: U.S. Pat. No. 3,474,171; cited from earlier work

In the case of `CCOP(=O)(OCC)N(CCc1ccccc1)SN(C)C(=O)Oc1cccc2c1OC(C)(C)C2` [9(c), 2,3-Dihydro-2,2-dimethyl-7-benzofuranyl [(N-diethoxyphosphinyl)(N-2-phenylethyl)aminosulfenyl][methyl-carbamate]], the mortality at 39 ppm (large milkweed bug [1]; 39 ppm) is reported as 6%, the mortality at 156 ppm (large milkweed bug [1]; 156 ppm) is reported as 100% and the mortality at 1250 ppm (large milkweed bug [1]; 1250 ppm) is reported as 100%. The mortality at 39 ppm (plum curculio [2]; 39 ppm) was 0%, the mortality at 156 ppm (plum curculio [2]; 156 ppm) was 5% and the mortality at 1250 ppm (plum curculio [2]; 1250 ppm) was 94%. The mortality at 39 ppm (confused flour beetle [3]; 39 ppm) was 0%, the mortality at 156 ppm (confused flour beetle [3]; 156 ppm) was 3% and the mortality at 1250 ppm (confused flour beetle [3]; 1250 ppm) was 8%. For the same molecule, the mortality at 39 ppm (Mexican bean beetle [4]; 39 ppm) was 60%, the mortality at 156 ppm (Mexican bean beetle [4]; 156 ppm) was 100% and the mortality at 1250 ppm (Mexican bean beetle [4]; 1250 ppm) was 100%. The mortality at 39 ppm (pea aphid [5]; 39 ppm) was 0%, the mortality at 156 ppm (pea aphid [5]; 156 ppm) was 0% and the mortality at 1250 ppm (pea aphid [5]; 1250 ppm) was 100%. For the same molecule, the mortality at 39 ppm (southern armyworm [6]; 39 ppm) was 0%, the mortality at 156 ppm (southern armyworm [6]; 156 ppm) was 8% and the mortality at 1250 ppm (southern armyworm [6]; 1250 ppm) was 79%. It also gave a mortality at 39 ppm (twospotted spider mite [7]; 39 ppm) of 3%, a mortality at 156 ppm (twospotted spider mite [7]; 156 ppm) of 6% and a mortality at 1250 ppm (twospotted spider mite [7]; 1250 ppm) of 98%. It also gave a mortality at 39 ppm (large milkweed bug [8]; 39 ppm) of 0%, a mortality at 156 ppm (large milkweed bug [8]; 156 ppm) of 85% and a mortality at 1250 ppm (large milkweed bug [8]; 1250 ppm) of 100%. The mortality at 39 ppm (plum curculio [9]; 39 ppm) was 0%, the mortality at 156 ppm (plum curculio [9]; 156 ppm) was 0% and the mortality at 1250 ppm (plum curculio [9]; 1250 ppm) was 0%. For the same molecule, the mortality at 39 ppm (confused flour beetle [10]; 39 ppm) was 0%, the mortality at 156 ppm (confused flour beetle [10]; 156 ppm) was 0% and the mortality at 1250 ppm (confused flour beetle [10]; 1250 ppm) was 12%. The mortality at 39 ppm (Mexican bean beetle [11]; 39 ppm) was 8%, the mortality at 156 ppm (Mexican bean beetle [11]; 156 ppm) was 100% and the mortality at 1250 ppm (Mexican bean beetle [11]; 1250 ppm) was 100%. The mortality at 39 ppm (pea aphid [12]; 39 ppm) was 6%, the mortality at 156 ppm (pea aphid [12]; 156 ppm) was 0% and the mortality at 1250 ppm (pea aphid [12]; 1250 ppm) was 0%. The mortality at 156 ppm (southern armyworm [13]; 156 ppm) was 0%, the mortality at 1250 ppm (southern armyworm [13]; 1250 ppm) was 25% and the mortality at 156 ppm (twospotted spider mite [14]; 156 ppm) was 0%. It also gave a mortality at 1250 ppm (twospotted spider mite [14]; 1250 ppm) of 0%, a mortality at 5 ppm (Mexican bean beetle [15]; 5 ppm) of 0% and a mortality at 10 ppm (Mexican bean beetle [15]; 10 ppm) of 0%. For the same molecule, the mortality at 39 ppm (Mexican bean beetle [15]; 39 ppm) was 0%, the mortality at 156 ppm (Mexican bean beetle [15]; 156 ppm) was 65% and the mortality at 5 ppm (pea aphid [16]; 5 ppm) was 0%. It also gave a mortality at 10 ppm (pea aphid [16]; 10 ppm) of 0%, a mortality at 39 ppm (pea aphid [16]; 39 ppm) of 0% and a mortality at 156 ppm (pea aphid [16]; 156 ppm) of 100%. For the same molecule, the mortality at 39 ppm (southern armyworm [17]; 39 ppm) was 0%, the mortality at 156 ppm (southern armyworm [17]; 156 ppm) was 21% and the mortality at 312 ppm (southern armyworm [17]; 312 ppm) was 80%. The mortality at 39 ppm (twospotted spider mite [18]; 39 ppm) was 0%, the mortality at 156 ppm (twospotted spider mite [18]; 156 ppm) was 0% and the mortality at 312 ppm (twospotted spider mite [18]; 312 ppm) was 2%. The mortality at 156 ppm (twospotted spider mite [19]; 156 ppm) was 0% and the mortality at 1250 ppm (twospotted spider mite [19]; 1250 ppm) was 94%.
For `CNC(=O)Oc1cccc2c1OC(C)(C)C2` [carbofuran, 2,3-dihydro-2,2-dimethyl-7-benzofuranyl methyl-carbamate, reference compound], the LD50 at 336 h [20] is given as 12.2 mg/kg and the “control of beetles, true bugs, aphids and acarids” value [21] is given as “effective in control of beetles, true bugs, aphids and acarids”.
